Source: ChEMBL document CHEMBL1201862, “PubChem BioAssay data set” (2004)
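48-hour exposure; five concentrations; linearly interpolated endpoints. GI50 = concentration required for 50% inhibition of growth.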 Activity calls are given as the source filed them. Rule as the data show it: active = GI50 up to about 1.1 µM and inactive = higher.

What was measured:
Assay in all cases: NCI anticancer screen, dose series, 48 h
786-0 = system: 786-0
A498 = system: A498
ACHN = system: ACHN
BT-549 = system: BT-549
COLO 205 = system: COLO 205
DLD-1 = system: DLD-1
DMS-273 = system: DMS-273
DU-145 = system: DU-145
HL-60 = system: HL-60
HOP-18 = system: HOP-18
HT-29 = system: HT-29
Hs-578T = system: Hs-578T
KM-20L2 = system: KM-20L2
KM12 = system: KM12
LOX IMVI = system: LOX IMVI
LXFL 529 = system: LXFL 529
M19-MEL = system: M19-MEL
MCF7 = system: MCF7
MDA-MB-231 = system: MDA-MB-231
MDA-MB-435 = system: MDA-MB-435
MDA-N = system: MDA-N
MOLT-4 = system: MOLT-4
NCI-H226 = system: NCI-H226
NCI-H460 = system: NCI-H460
NCI/ADR-RES = system: NCI/ADR-RES
PC-3 = system: PC-3
RXF 393 = system: RXF 393
SF-295 = system: SF-295
SF-539 = system: SF-539
SN12C = system: SN12C
SNB-19 = system: SNB-19
SNB-75 = system: SNB-75
SNB-78 = system: SNB-78
SR = system: SR
SW-620 = system: SW-620
T47D = system: T47D
UACC-257 = system: UACC-257
UO-31 = system: UO-31
A549 = system: A549
CAKI-1 = system: CAKI-1
CCRF-CEM = system: CCRF-CEM
DMS-114 = system: DMS-114
EKVX = system: EKVX
HCC 2998 = system: HCC 2998
HCT-116 = system: HCT-116
HCT-15 = system: HCT-15
HOP-62 = system: HOP-62
IGROV-1 = system: IGROV-1
K562 = system: K562
M14 = system: M14
Malme-3M = system: Malme-3M
NCI-H23 = system: NCI-H23
NCI-H522 = system: NCI-H522
OVCAR-3 = system: OVCAR-3
OVCAR-4 = system: OVCAR-4
OVCAR-5 = system: OVCAR-5
OVCAR-8 = system: OVCAR-8
RPMI-8226 = system: RPMI-8226
SF-268 = system: SF-268
SK-MEL-28 = system: SK-MEL-28
SK-MEL-2 = system: SK-MEL-2
SK-MEL-5 = system: SK-MEL-5
TK-10 = system: TK-10
U-251 = system: U-251
UACC-62 = system: UACC-62
XF498 = system: XF498

With COc1cc2c(cc1OC)[C@@H](Nc1ccc(C#N)cc1)C1COC(=O)[C@@H]1C2c1cc(OC)c(O)c(OC)c1 (stereo not given in full) the GI50 (786-0) was 0.196 µM (active), the GI50 (A498) was 0.042 µM (active) and the GI50 (ACHN) was 0.0279 µM (active). The GI50 (BT-549) was 1.41 µM (inactive), the GI50 (COLO 205) was 2.13 µM (inactive) and the GI50 (DLD-1) was 2.37 µM (inactive). The GI50 (DMS-273) was 0.0403 µM (active), the GI50 (DU-145) was 0.149 µM (active) and the GI50 (HL-60) was < 0.00975 µM (active). The GI50 (HOP-18) was 0.805 µM (active), the GI50 (HT-29) was 1.87 µM (inactive) and the GI50 (Hs-578T) was 1.55 µM (inactive). For the same compound, the GI50 (KM-20L2) was 3.12 µM (inactive), the GI50 (KM12) was 1.59 µM (inactive) and the GI50 (LOX IMVI) was 0.214 µM (active). The GI50 (LXFL 529) was 22.4 µM (inactive), the GI50 (M19-MEL) was 2.39 µM (inactive) and the GI50 (MCF7) was 0.181 µM (active). For the same compound, the GI50 (MDA-MB-231) was 2.36 µM (inactive), the GI50 (MDA-MB-435) was 6.73 µM (inactive) and the GI50 (MDA-N) was 3.18 µM (inactive). For the same compound, the GI50 (MOLT-4) was < 0.00975 µM (active), the GI50 (NCI-H226) was 0.01 µM (active) and the GI50 (NCI-H460) was < 0.00975 µM (active). The GI50 (NCI/ADR-RES) was 40.2 µM (inactive), the GI50 (PC-3) was > 100 µM (inactive) and the GI50 (RXF 393) was 2.09 µM (inactive). For the same compound, the GI50 (SF-295) was 0.108 µM (active), the GI50 (SF-539) was 0.158 µM (active) and the GI50 (SN12C) was 0.192 µM (active). For the same compound, the GI50 (SNB-19) was 0.344 µM (active), the GI50 (SNB-75) was 0.328 µM (active) and the GI50 (SNB-78) was 5.79 µM (inactive). The GI50 (SR) was < 0.00975 µM (active), the GI50 (SW-620) was 0.948 µM (active) and the GI50 (T47D) was 0.167 µM (active). The GI50 (UACC-257) was 28.3 µM (inactive) and the GI50 (UO-31) was 1.75 µM (inactive).

With Cc1cc2c(Br)cc(Br)c(O)c2nc1C(=O)c1ccccc1 the GI50 (786-0) was 10.2 µM (inactive), the GI50 (A498) was 20.7 µM (inactive) and the GI50 (A549) was 14.4 µM (inactive). The GI50 (ACHN) was 20.8 µM (inactive), the GI50 (BT-549) was > 100 µM (inactive) and the GI50 (CAKI-1) was 55.8 µM (inactive). The GI50 (CCRF-CEM) was 8.11 µM (inactive), the GI50 (COLO 205) was 21.4 µM (inactive) and the GI50 (DLD-1) was 36.6 µM (inactive). For the same compound, the GI50 (DMS-114) was 31.6 µM (inactive), the GI50 (DMS-273) was 19 µM (inactive) and the GI50 (DU-145) was 17 µM (inactive). The GI50 (EKVX) was > 51.6 µM (inactive), the GI50 (HCC 2998) was 18.7 µM (inactive) and the GI50 (HCT-116) was 12.4 µM (inactive). For the same compound, the GI50 (HCT-15) was 14 µM, the GI50 (HL-60) was 4.4 µM (inactive) and the GI50 (HOP-18) was 18.5 µM (inactive). For the same compound, the GI50 (HOP-62) was 14 µM (inactive), the GI50 (HT-29) was 28.4 µM (inactive) and the GI50 (Hs-578T) was > 100 µM (inactive). For the same compound, the GI50 (IGROV-1) was 21 µM (inactive), the GI50 (K562) was 10.4 µM (inactive) and the GI50 (KM-20L2) was 28.4 µM (inactive). For the same compound, the GI50 (KM12) was 22.3 µM (inactive), the GI50 (LOX IMVI) was 10.4 µM (inactive) and the GI50 (LXFL 529) was 21.1 µM (inactive). For the same compound, the GI50 (M14) was > 43.3 µM (inactive), the GI50 (M19-MEL) was 17.7 µM (inactive) and the GI50 (MCF7) was 10.1 µM (inactive). The GI50 (MDA-MB-231) was 20 µM (inactive), the GI50 (MDA-MB-435) was 43.1 µM (inactive) and the GI50 (MDA-N) was 16.2 µM (inactive). For the same compound, the GI50 (MOLT-4) was 24.3 µM (inactive), the GI50 (Malme-3M) was 33.2 µM (inactive) and the GI50 (NCI-H226) was > 51.1 µM (inactive). The GI50 (NCI-H23) was 13.1 µM (inactive), the GI50 (NCI-H460) was 10.6 µM (inactive) and the GI50 (NCI-H522) was 13.5 µM (inactive). For the same compound, the GI50 (NCI/ADR-RES) was 4.01 µM (inactive), the GI50 (OVCAR-3) was 20.3 µM (inactive) and the GI50 (OVCAR-4) was 29.3 µM (inactive). The GI50 (OVCAR-5) was > 45.1 µM (inactive), the GI50 (OVCAR-8) was 35 µM (inactive) and the GI50 (PC-3) was 13.4 µM (inactive). For the same compound, the GI50 (RPMI-8226) was 22.4 µM (inactive), the GI50 (RXF 393) was > 47.5 µM (inactive) and the GI50 (SF-268) was 28.3 µM (inactive). The GI50 (SF-295) was 10.6 µM (inactive), the GI50 (SF-539) was 19.1 µM (inactive) and the GI50 (SK-MEL-28) was > 62.7 µM (inactive). The GI50 (SK-MEL-2) was > 61.1 µM (inactive), the GI50 (SK-MEL-5) was 14.5 µM (inactive) and the GI50 (SN12C) was 20.2 µM (inactive). For the same compound, the GI50 (SNB-19) was 24.9 µM (inactive), the GI50 (SNB-75) was > 74.1 µM (inactive) and the GI50 (SNB-78) was 50.1 µM (inactive). The GI50 (SR) was 14.9 µM (inactive), the GI50 (SW-620) was 55.8 µM (inactive) and the GI50 (T47D) was 8.17 µM (inactive). For the same compound, the GI50 (TK-10) was 28.4 µM (inactive), the GI50 (U-251) was 14.4 µM (inactive) and the GI50 (UACC-257) was 24.5 µM (inactive). The GI50 (UACC-62) was 9.59 µM (inactive) and the GI50 (UO-31) was 12.2 µM (inactive).

CCCCCCCCCCCCCB(O)O was tested, and the GI50 (CCRF-CEM) was > 100 µM (inactive), the GI50 (DMS-114) was > 100 µM (inactive) and the GI50 (DMS-273) was > 100 µM (inactive). The GI50 (M14) was > 100 µM (inactive), the GI50 (NCI-H23) was > 100 µM (inactive) and the GI50 (OVCAR-3) was > 100 µM (inactive). The GI50 (OVCAR-5) was > 100 µM (inactive), the GI50 (SK-MEL-2) was > 100 µM (inactive) and the GI50 (SNB-19) was > 100 µM (inactive). For the same compound, the GI50 (SW-620) was > 100 µM (inactive), the GI50 (U-251) was > 100 µM (inactive) and the GI50 (XF498) was > 100 µM (inactive).
